Test results as given in US10010539B2, “Pyrazole, triazole and tetrazole orexin receptor antagonists” (MERCK SHARP & DOHME CORP., priority 2014, dated 2018).

Assays:
[1] = target: human orexin-2 receptor (Homo sapiens (Human), UniProt O43614); experiment: FLIPR Ca2+ Flux Assay, orexin-2 receptor (hOX2R FLIPR); type: cell-based; settings: CHO cells expressing the human orexin-2 receptor; agonist 70 pM Ala-6,12 human orexin-A
Procedure, shortened: (§1)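 Calcium flux in CHO cells bearing rat orexin-1 or human orexin-2 receptor; antagonist 5 min, then 70 pM Ala-6,12 orexin-A. Buffer HBSS, 20 mM HEPES, 0.1% BSA, 2.5 mM probenecid, pH7.4. Read-out: peak fluorescence, IC50.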

[2] = target: hOXIR (orexin-1 receptor) (Homo sapiens, UniProt O43613); experiment: FLIPR Ca2+ Flux Assay, orexin-1 receptor (hOXIR FLIPR); type: cell-based; settings: CHO cells expressing the orexin-1 receptor (method text: rat; table head: hOXIR); agonist 70 pM Ala-6,12 human orexin-A
Procedure, shortened: as §1

Chain of human orexin-2 receptor (O43614 whole entry): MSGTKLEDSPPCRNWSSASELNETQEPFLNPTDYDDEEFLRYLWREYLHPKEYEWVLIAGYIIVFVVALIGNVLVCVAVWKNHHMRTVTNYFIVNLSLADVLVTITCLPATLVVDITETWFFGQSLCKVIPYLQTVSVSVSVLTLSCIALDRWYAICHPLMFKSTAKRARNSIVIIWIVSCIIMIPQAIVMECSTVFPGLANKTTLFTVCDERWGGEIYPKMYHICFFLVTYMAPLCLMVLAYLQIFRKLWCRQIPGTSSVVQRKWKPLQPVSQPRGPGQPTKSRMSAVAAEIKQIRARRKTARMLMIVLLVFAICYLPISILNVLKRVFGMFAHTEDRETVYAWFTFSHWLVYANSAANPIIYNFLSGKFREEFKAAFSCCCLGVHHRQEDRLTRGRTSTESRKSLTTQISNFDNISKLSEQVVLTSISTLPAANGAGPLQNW

Structure (SMILES)	IC50 [1] [nM]	IC50 [2] [nM]
C[C@@H]1CC[C@@H](n2ncc(C(C)(C)O)n2)CN1C(=O)c1cccnc1-n1nccn1 [Example 59, 2-{2-[(3R,6R)-6-Methyl-1-{[2-(2H-1,2,3-triazol-2-yl)pyridin-3-yl]carbonyl}piperidin-3-yl]-2H-1,2,3-triazol-4-yl}propan-2-ol]	400	> 10000
Cc1noc(-c2ccccc2C(=O)N2C[C@H](n3ncc(C(C)(C)O)n3)CC[C@H]2C)n1 [Example 36, 2-{2-[(3R,6R)-6-methyl-1-{[2-(3-methyl-1,2,4-oxadiazol-5-yl)phenyl]carbonyl}piperidin-3-yl]-2H-1,2,3-triazol-4-yl}propan-2-ol]	62.9	> 10000
Cc1nn([C@@H]2CC[C@@H](C)N(C(=O)c3ccccc3-n3nccn3)C2)cc1C(C)(C)O [Example 107, 2-{3-Methyl-1-[(3R,6R)-6-methyl-1-{[2-(2H-1,2,3-triazol-2-yl)phenyl]carbonyl}piperidin-3-yl]-1H-pyrazol-4-yl}propan-2-ol]	13.8	339
Cc1nc(-c2ccccc2C(=O)N2C[C@H](n3ncc(C(C)(C)O)n3)CC[C@H]2C)no1 [Example 47, 2-{2-[(3R,6R)-6-methyl-1-{[2-(5-methyl-1,2,4-oxadiazol-3-yl)phenyl]carbonyl}piperidin-3-yl]-2H-1,2,3-triazol-4-yl}propan-2-ol]	45.7	> 10000
Cc1nn([C@@H]2CC[C@@H](C)N(C(=O)c3cccnc3-c3ccccc3)C2)nc1C(C)(C)O [Example 73, 2-(5-Methyl-2-{(3R,6R)-6-methyl-1-[(2-phenylpyridin-3-yl)carbonyl]piperidin-3-yl}-2H-1,2,3-triazol-4-yl)propan-2-ol]	17.4	2460
C[C@@H]1CC[C@@H](n2ncc(C(C)(C)O)n2)CN1C(=O)c1cccnc1C1CC1 [Example 60, 2-(2-{(3R,6R)-1-[(2-Cyclopropylpyridin-3-yl)carbonyl]-6-methylpiperidin-3-yl}-2H-1,2,3-triazol-4-yl)propan-2-ol]	608	> 10000
COCc1ccccc1C(=O)N1C[C@H](n2ncc(C(C)(C)O)n2)CC[C@H]1C [Example 56, 2-{2-[(3R,6R)-1-{[2-(methoxymethyl)phenyl]carbonyl}-6-methylpiperidin-3-yl]-2H-1,2,3-triazol-4-yl}propan-2-ol]	308	> 10000
CCOc1ccccc1C(=O)N1C[C@H](n2cc(C(C)(C)O)cn2)CC[C@H]1C [Example 77, 2-(1-{(3R,6R)-1-[(2-Ethoxyphenyl)carbonyl]-6-methylpiperidin-3-yl}-1H-pyrazol-4-yl)propan-2-ol]	121	> 10000
Cc1nn([C@@H]2CC[C@@H](C)N(C(=O)c3ccccc3-n3cccn3)C2)nc1C(C)(C)O [Example 71, 2-{5-Methyl-2-[(3R,6R)-6-methyl-1-{[2-(1H-pyrazol-1-yl)phenyl]carbonyl}piperidin-3-yl]-2H-1,2,3-triazol-4-yl}propan-2-ol]	9.3	2710
C[C@@H]1CC[C@@H](n2cc(C(C)(C)O)cn2)CN1C(=O)c1nccnc1-n1nccn1 [Example 101, 2-{1-[(3R,6R)-6-Methyl-1-{[3-(2H-1,2,3-triazol-2-yl)pyrazin-2-yl]carbonyl}piperidin-3-yl]-1H-pyrazol-4-yl}propan-2-ol]	479	> 10000
C[C@@H]1CC[C@@H](n2ncc(C(C)(C)O)n2)CN1C(=O)c1ccccc1[C@H]1CC1(F)F [Example 23, 2-{2-[(3R,6R)-1-({2-[(1R)-2,2-difluorocyclopropyl]phenyl}carbonyl)-6-methylpiperidin-3-yl]-2H-1,2,3-triazol-4-yl}propan-2-ol]	46.9	> 10000
Cc1cccc(C(=O)N2C[C@H](n3ncc(C(C)(C)O)n3)CC[C@H]2C)c1-n1nccn1 [Example 46]	56.4	> 10000
COc1ccc(C(=O)N2C[C@H](n3cc(C(C)(C)O)cn3)CC[C@H]2C)c(C2CCC2)n1 [Example 100, 2-(1-{(3R,6R)-1-[(2-Cyclobutyl-6-methoxypyridin-3-yl)carbonyl]-6-methylpiperidin-3-yl}-1H-pyrazol-4-yl)propan-2-ol]	60.8	> 10000
C[C@@H]1CC[C@@H](n2ncc(C(C)(C)O)n2)CN1C(=O)c1cccnc1OCC(F)(F)F [Example 14, ((2R,5R)-5-(4-(2-Hydroxypropan-2-yl)-2H-1,2,3-triazol-2-yl)-2-methylpiperidin-1-yl)(2-(2,2,2-trifluoroethoxy)pyridin-3-yl)methanone]	15.9	8790
C[C@@H]1CC[C@@H](n2cc(C(C)(C)O)cn2)CN1C(=O)c1ccccc1-n1cccn1 [Example 93, 2-{1-[(3R,6R)-6-Methyl-1-{[2-(1H-pyrazol-1-yl)phenyl]carbonyl}piperidin-3-yl]-1H-pyrazol-4-yl}propan-2-ol]	92.7	> 10000
CC(C)c1ccccc1C(=O)N1C[C@H](n2cc(C(C)(C)O)cn2)CC[C@H]1C [Example 82, 2-{1-[(3R,6R)-6-Methyl-1-{[2-(1-methylethyl)phenyl]carbonyl}piperidin-3-yl]-1H-pyrazol-4-yl}propan-2-ol]	347	> 10000
C[C@@H]1CC[C@@H](n2ncc(C(C)(C)O)n2)CN1C(=O)c1ccccc1-c1ccccc1 [Example 2, [1,1′-Biphenyl]-2-yl((2R,5R)-5-(4-(2-hydroxypropan-2-yl)-2H-1,2,3-triazol-2-yl)-2-methylpiperidin-1-yl)methanone]	16.2	483
C[C@@H]1CC[C@@H](n2ncc(C(C)(C)O)n2)CN1C(=O)c1cccnc1OC(F)F [Example 7, (2-(Difluoromethoxy)pyridin-3-yl)((2R,5R)-5-(4-(2-hydroxypropan-2-yl)-2H-1,2,3-triazol-2-yl)-2-methylpiperidin-1-yl)methanone]	51.7	> 10000
C[C@@H]1CC[C@@H](n2ncc(C(C)(C)O)n2)CN1C(=O)c1ccccc1OCC(F)F [Example 18, (2-(2,2-Difluoroethoxy)phenyl)((2R,5R)-5-(4-(2-hydroxypropan-2-yl)-2H-1,2,3-triazol-2-yl)-2-methylpiperidin-1-yl)methanone]	15	> 10000
Cc1nn([C@@H]2CC[C@@H](C)N(C(=O)c3ccccc3-n3nccn3)C2)nc1C(C)(C)O [Example 62, 2-{5-Methyl-2-[(3R,6R)-6-methyl-1-{[2-(2H-1,2,3-triazol-2-yl)phenyl]carbonyl}piperidin-3-yl]-2H-1,2,3-triazol-4-yl}propan-2-ol]	12.5	1250
CCOc1ncccc1C(=O)N1C[C@H](n2nc(C)c(C(C)(C)O)n2)CC[C@H]1C [Example 65, 2-(2-{(3R,6R)-1-[(2-Ethoxypyridin-3-yl)carbonyl]-6-methylpiperidin-3-yl}-5-methyl-2H-1,2,3-triazol-4-yl)propan-2-ol]	15.1	2930
C[C@@H]1CC[C@@H](n2ncc([C@@H](O)C(F)(F)F)n2)CN1C(=O)c1ccccc1-n1nccn1 [Example 27, (2-(2H-1,2,3-triazol-2-yl)phenyl)((2R,5R)-2-methyl-5-(4-((R)-2,2,2-trifluoro-1-hydroxyethyl)-2H-1,2,3-triazol-2-yl)piperidin-1-yl)methanone]	17.9	505
